Source: PMC12022980, “Rational Design of PROTAC Linkers Featuring Ferrocene as a Molecular Hinge to Enable Dynamic Conformational Changes” (Journal of the American Chemical Society, 2025)
Converted amounts (≈) assume the structure as drawn. Read-outs that look alike come from different tables or passages of the source.

Columns and labels:
[1] = Kinetic solubility in phosphate buffer and FeSSIF; format: physicochemical; conditions: kinetic from iPrOH stock
Protocol: Solubility in Phosphate Buffer and Fed State Simulated Intestinal Fluid (FeSSIF) 8 µL of reference or test compound stock solution (10 mM in iPrOH) was added to 792 μL of 100 mM phosphate buffer (pH 7.4) or FeSSIF (pH 5.8). The resulting mixture was shaken for 1 h (1000 rpm) at room temperature and then centrifuged for 10 min (12 000 rpm) to remove the undissolved particles. The supernatant was collected and diluted 10 times and 100 times separately with 100 mM phosphate buffer or FeSSIF. Five microliters of the supernatant samples (no diluted, 10 times diluted, 100 times diluted) were mixed with 95 μL of acetonitrile (containing internal standard) separately before injecting into LC-MS/MS for analysis. […]

[2] = target: T1, VHL (Homo sapiens, UniProt P40337); assay: NanoBRET VHL target engagement, permeabilised-cell mode; format: cell-based; conditions: HEK293 transfected with VHL-NanoLuc, tracer 0.5 μM
T1 construct: host or cells: HEK293, transient transfection
From the text: (§1) To this end, we assessed the PROTAC cellular permeability by evaluating VHL target engagement using the Promega NanoBRET TE Intracellular E3 Ligase.[62] Current PROTAC permeability assays use artificial systems like PAMPA and Caco-2, designed for small molecules but not always effective for PROTACs due to their low permeability, high molecular weight and assay caveats (i.e., unspecific binding and low recovery).[63],[64] The NanoBRET assay is a high-throughput method validated for measuring E3 ligase engagement in live and permeabilised cells. The assay allows to rank PROTAC intracellular availability through competitive probe displacement and offers a simple workflow for prioritising compounds based on properties associated with permeability. […] Specifically, in the live-cell mode, the assay measures the apparent cellular affinity, where the plasma membrane is intact and can impede the compound’s access to its target. In the permeabilised-cell mode, the barrier posed by the plasma membrane is removed and the intrinsic affinity of the compound for target is measured. […] The ratio of potencies between live-cell and permeabilised-cell modes, referred to as the relative-binding affinity (RBA) value increases as intracellular availability decreases and is thus a metric for assessing a PROTAC̀s cellular availability. […]

[3] = Mouse liver microsome stability; format: in vitro ADME; conditions: liver microsomes; for CLint scaled at 1 µM: pH 7.4; for half-life at 1 µM: pH 7.4, read-out: stability T1/2 in mouse microsome
Protocol: Mouse Liver Microsome Stability
Testing compound (1.5 μL) or reference compound (500 μM in 5% iPrOH and 95% acetonitrile) was mixed with 18.75 μL of 20 mg/mL liver microsome (Corning) and 479.75 μL of potassium phosphate buffer (0.1 M potassium phosphate buffer, 1 mM EDTA, pH 7.4). The reaction was started by mixing 30 μL of the above mixture (prewarmed to 37 °C) with 15 μL of 6 mM NADPH stock solution (prewarmed to 37 °C). After incubating for 5, 15, 30, or 45 min, 135 μL of acetonitrile containing internal standard was added to stop the reaction. For 0 min, the compound and microsome mixture were mixed with acetonitrile first before adding NADPH. After quenching, the reaction mixture was centrifuged, and the supernatant was taken and diluted for LC-MS

[4] = Plasma stability assay; format: in vitro ADME; conditions: mouse plasma; read-out: stability T1/2 in mouse plasma
Protocol: Frozen plasma was thawed at 37 °C and centrifuged at 3000 rpm for 8 min to remove clots, and the supernatant was used in the experiment. The pH of the plasma was recorded, and only the pH range between 7.4 and 8 was used. The plasma and compound solution were prewarmed to 37 °C. 10 µL of prewarmed testing compound or reference compound (procaine) solution (20 μM in 0.05 mM sodium phosphate buffer (pH 7.4) with 0.5% BSA) was mixed with 90 μL of plasma at different time points to allow for 5, 15, 30, 45, and 60 min of incubation time. For 0 min, the plasma was mixed with vehicle only. Acetonitrile was added to the compound and plasma mixture to quench the reaction, and the resulting mixture was centrifuged (5594g for 15 min). The

[5] = target: T1, VHL; assay: NanoBRET VHL target engagement, live-cell mode; format: cell-based; conditions: for IC50: HEK293 transfected with VHL-NanoLuc, live cells, tracer 1 μM
From the text: as §1

[6] = FeSSIF pH 5.8, read-out: kinetic solubility FeSSIF (pH 5.8)
[7] = phosphate buffer, aqueous buffer, PBS pH 7.4, read-out: kinetic solubility PBS (pH 7.4)

T1 sequence (P40337 whole entry): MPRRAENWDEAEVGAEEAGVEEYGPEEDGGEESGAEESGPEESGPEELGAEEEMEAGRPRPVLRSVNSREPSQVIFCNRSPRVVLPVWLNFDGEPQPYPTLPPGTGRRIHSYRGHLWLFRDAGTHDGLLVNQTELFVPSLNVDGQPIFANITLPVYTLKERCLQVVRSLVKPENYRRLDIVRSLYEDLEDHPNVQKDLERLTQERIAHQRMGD

solubility kinetic at 1 h [1, 6] [µM] | solubility kinetic at 1 h [1, 7] [µM] | IC50 [2] [µM] | CLint scaled at 1 µM [3] [mL/min/kg] | half-life at 1 µM [3] [min] | half-life at 2 µM [4] [min] | AI (availability index = RBAPROTAC ÷ RBAVH298) [5] | RBA (relative binding affinity = IC50live ÷ IC50perm) [5] | fold lower potency in live-cell vs permeabilised-cell assay [5] [fold] | IC50 [5] [µM] | SMILES
59.5 (≈ 57 µg/mL) | 8.7 (≈ 8.34 µg/mL) | 0.3 | 5090 | 1.1 | 33.4 | 4.2 | 4.4 | 4 | 1.33 | Cc1ncsc1-c1ccc(CNC(=O)[C@@H]2C[C@@H](O)CN2C(=O)[C@@H](NC(=O)CCCCCOCCOCCCCCC(=O)Nc2cccc3c2C(=O)N(C2CCC(=O)NC2=O)C3=O)C(C)(C)C)cc1 (stereo partly shown) [14a]
38.6 (≈ 45.5 µg/mL) | 58.2 (≈ 68.6 µg/mL) | 0.3 | 212 | 25.8 | 234 | 1.4 | 1.4 | – | 0.45 | Cc1ncsc1-c1ccc(CNC(=O)[C@@H]2C[C@@H](O)CN2C(=O)[C@@H](NC(=O)COCCOCCOCCOCCOCCOCC(=O)N[C@H](C(=O)N2C[C@H](O)C[C@H]2C(=O)NCc2ccc(-c3scnc3C)cc2)C(C)(C)C)C(C)(C)C)cc1 [CM11]
